Source: PubChem BioAssay (NCI)
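48-hour exposure; five concentrations; linearly interpolated endpoints. At the TGI there is no net growth.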

Tests used:
Experiment in all cases: inhibition of tumour cell growth, NCI panel, 48 h
786-0 renal = tested on: 786-0 renal
CCRF-CEM leukemia = tested on: CCRF-CEM leukemia
EKVX NSCLC = tested on: EKVX NSCLC
HCT-116 colon = tested on: HCT-116 colon
KM12 colon = tested on: KM12 colon
M14 melanoma = tested on: M14 melanoma
MALME-3M melanoma = tested on: MALME-3M melanoma
OVCAR-8 ovarian = tested on: OVCAR-8 ovarian
SF-268 CNS = tested on: SF-268 CNS
SNB-75 CNS = tested on: SNB-75 CNS
A498 renal = tested on: A498 renal
UACC-62 melanoma = tested on: UACC-62 melanoma

Measured: TGI

O=C(Cn1cc(-c2ccccc2)nn1)NC1CCCCC1
> 100 µM: 786-0 renal | CCRF-CEM leukemia | EKVX NSCLC | HCT-116 colon | KM12 colon | M14 melanoma | MALME-3M melanoma | OVCAR-8 ovarian | SF-268 CNS | SNB-75 CNS

CCN1CCCC(C#N)(c2ccccc2)CC1 (configuration not stated)
> 100 µM: 786-0 renal | A498 renal | EKVX NSCLC | HCT-116 colon | KM12 colon | M14 melanoma | MALME-3M melanoma | OVCAR-8 ovarian | SF-268 CNS | SNB-75 CNS

CCOc1ccc(N/C(=C(/C(Cl)=C(/Cl)Nc2ccccc2)[N+](=O)[O-])n2nnc3ccccc32)cc1
56 µM: HCT-116 colon
> 100 µM: A498 renal | EKVX NSCLC | KM12 colon | SNB-75 CNS
43.5 µM: UACC-62 melanoma
44.4 µM: MALME-3M melanoma
34 µM: M14 melanoma
62.3 µM: 786-0 renal
53.4 µM: SF-268 CNS

Cc1[nH]c(=O)nc2c1C(NCCCN(C)C)c1cc(Cl)ccc1N2 (configuration not stated)
21.3 µM: M14 melanoma
26.2 µM: SNB-75 CNS | UACC-62 melanoma
30.5 µM: SF-268 CNS
34.8 µM: CCRF-CEM leukemia
27.7 µM: 786-0 renal
30.3 µM: KM12 colon | MALME-3M melanoma
28.5 µM: HCT-116 colon
28.7 µM: OVCAR-8 ovarian
30.1 µM: EKVX NSCLC

COc1ccc(N=C2S/C(=N\C(=Nc3ccccc3)SCc3ccccc3)N(c3ccccc3)C2=Nc2ccc(OC)cc2)cc1
> 100 µM: 786-0 renal | CCRF-CEM leukemia | EKVX NSCLC | HCT-116 colon | KM12 colon | M14 melanoma | MALME-3M melanoma | OVCAR-8 ovarian | SNB-75 CNS | UACC-62 melanoma

Nc1ccc2nc3c(nc2c1)C(=O)c1ccccc1-3
> 100 µM: 786-0 renal | CCRF-CEM leukemia | EKVX NSCLC | HCT-116 colon | KM12 colon | M14 melanoma | MALME-3M melanoma | OVCAR-8 ovarian | SF-268 CNS | SNB-75 CNS | UACC-62 melanoma

Cc1ccc(/C=N/n2c(Cc3ccccc3)n[nH]c2=O)cc1
> 100 µM: 786-0 renal | A498 renal | CCRF-CEM leukemia | EKVX NSCLC | HCT-116 colon | KM12 colon | M14 melanoma | MALME-3M melanoma | OVCAR-8 ovarian | SF-268 CNS | SNB-75 CNS

O=C(NC(Cl)(C(F)(F)F)C(F)(F)F)c1ccc(F)cc1
91.6 µM: SNB-75 CNS
> 100 µM: 786-0 renal | A498 renal | CCRF-CEM leukemia | EKVX NSCLC | HCT-116 colon | KM12 colon | M14 melanoma | MALME-3M melanoma | OVCAR-8 ovarian | SF-268 CNS

CCOP(=O)(C=C=C1CCC2[C@@H]3CCc4cc(OC)ccc4C3CC[C@]12C)OCC (some centres not stated)
24.3 µM: M14 melanoma
26.2 µM: KM12 colon
25.9 µM: A498 renal
18.2 µM: UACC-62 melanoma
19.2 µM: HCT-116 colon
28 µM: SF-268 CNS
25.3 µM: 786-0 renal
25.5 µM: SNB-75 CNS
29.3 µM: OVCAR-8 ovarian
30.3 µM: MALME-3M melanoma
21.9 µM: EKVX NSCLC

CCOP(=O)(OCC)C(C)(C)N(C)/C(F)=N/C(F)(F)F
> 100 µM: 786-0 renal | CCRF-CEM leukemia | EKVX NSCLC | HCT-116 colon | KM12 colon | M14 melanoma | MALME-3M melanoma | OVCAR-8 ovarian | SF-268 CNS | SNB-75 CNS | UACC-62 melanoma

COc1ccccc1C1C(Cl)C(=O)N1n1cnc2ccccc2c1=O (configuration not stated)
> 100 µM: 786-0 renal | CCRF-CEM leukemia | EKVX NSCLC | HCT-116 colon | KM12 colon | M14 melanoma | MALME-3M melanoma | OVCAR-8 ovarian | SF-268 CNS | SNB-75 CNS | UACC-62 melanoma

Clc1ccc(Nc2nnc(CCCCCCCCc3nnc(Nc4ccc(Cl)cc4)o3)o2)cc1
> 100 µM: A498 renal | EKVX NSCLC | M14 melanoma | MALME-3M melanoma | SNB-75 CNS
60.1 µM: 786-0 renal
78.4 µM: UACC-62 melanoma
99.2 µM: KM12 colon
34.5 µM: HCT-116 colon

CC(=O)OCC(OC(C)=O)C(OC(C)=O)C(/C=N\Nc1nc2ccccc2c(=O)[nH]1)=N\Nc1nc2ccccc2c(=O)[nH]1 (configuration not stated)
> 100 µM: 786-0 renal | CCRF-CEM leukemia | EKVX NSCLC | HCT-116 colon | KM12 colon | M14 melanoma | MALME-3M melanoma | OVCAR-8 ovarian | SF-268 CNS | SNB-75 CNS | UACC-62 melanoma

O=C(O)CSCc1cc2c(O)c(c1)Cc1cc(CSCC(=O)O)cc(c1O)Cc1cc(CSCC(=O)O)cc(c1O)Cc1cc(CSCC(=O)O)cc(c1O)C2
> 100 µM: 786-0 renal | A498 renal | CCRF-CEM leukemia | EKVX NSCLC | HCT-116 colon | KM12 colon | M14 melanoma | MALME-3M melanoma | OVCAR-8 ovarian | SF-268 CNS

OCc1cc2c(ccc3sc4ccc5sc6ccc7ncccc7c6c5c4c32)s1
38.6 µM: UACC-62 melanoma
22.8 µM: SNB-75 CNS
62.1 µM: OVCAR-8 ovarian
20.4 µM: KM12 colon
29.7 µM: EKVX NSCLC
15.1 µM: 786-0 renal
> 100 µM: A498 renal | CCRF-CEM leukemia
23 µM: HCT-116 colon

CC(C)(C)c1cc(-c2cc(C(C)(C)C)[nH]n2)n[nH]1
> 100 µM: 786-0 renal | A498 renal | CCRF-CEM leukemia | EKVX NSCLC | HCT-116 colon | M14 melanoma | MALME-3M melanoma | SF-268 CNS | UACC-62 melanoma

O=C1NC(=S)N/C1=C\c1cc2c(=O)c3ccccc3sc2s1
72 µM: SNB-75 CNS
> 100 µM: 786-0 renal | A498 renal | EKVX NSCLC | HCT-116 colon | KM12 colon | MALME-3M melanoma | OVCAR-8 ovarian | SF-268 CNS | UACC-62 melanoma

O=P1(Oc2ccccc2)N=P(c2ccccc2)(c2ccccc2)C=C(c2ccc(Cl)cc2)N1 (configuration not stated)
21.1 µM: M14 melanoma
25.1 µM: KM12 colon
26.2 µM: SF-268 CNS
29.6 µM: MALME-3M melanoma
26.6 µM: CCRF-CEM leukemia
28 µM: 786-0 renal
29.8 µM: OVCAR-8 ovarian
27.5 µM: UACC-62 melanoma
21.6 µM: EKVX NSCLC
30.5 µM: HCT-116 colon

N#CC(N)c1ccc(OCCCCCCCCCCOc2ccc(C(N)C#N)cc2)cc1 (configuration not stated)
67.8 µM: CCRF-CEM leukemia
> 100 µM: 786-0 renal | A498 renal | EKVX NSCLC | HCT-116 colon | KM12 colon | M14 melanoma | MALME-3M melanoma | OVCAR-8 ovarian | SF-268 CNS | UACC-62 melanoma

Cc1ccc2c(=O)cc(Cc3cccs3)[nH]c2n1
> 100 µM: 786-0 renal | CCRF-CEM leukemia | EKVX NSCLC | HCT-116 colon | KM12 colon | M14 melanoma | MALME-3M melanoma | OVCAR-8 ovarian | SF-268 CNS | SNB-75 CNS | UACC-62 melanoma
